According to patent publication US20160257697A1, “THIOPHENE-SUBSTITUTED TETRACYCLIC COMPOUNDS AND METHODS OFUSE THEREOF FOR THE TREATMENT OF VIRAL DISEASES” (priority 2013, published 2016):
Like-named read-outs stand apart in the source and are kept apart here.

What was measured:
Assay in all cases: microbe, parasite or virus in culture
Format in all cases: cell-based, Hepatitis C virus (HCV)
Details in all cases: Replicon Assay A
HCV replicon 1AY93H = system: HCV replicon 1AY93H
Procedure, shortened: (§1)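 Replicon cells incubated with compound for 3 days in medium with 5% FBS and 0.5% DMSO final. Replicon RNA measured in lysates by multiplex real-time RT-PCR (Neo set) against cyclophilin control, quantified from standard curves of Ct versus log ng replicon total RNA.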

HCV replicon 1A = system: HCV replicon 1A
Procedure, shortened: as §1

HCV replicon 2B = system: HCV replicon 2B
Procedure, shortened: as §1

[1] = read-out: 1A Y93H IC50, replicon 1AY93H
[2] = read-out: 1A Y93H IC50, HCV replicon 1A Y93H
[3] = Hepatitis C virus, HCV replicon 1A
[4] = read-out: 2B IC50, HCV replicon 2B
[5] = Hepatitis C virus, read-out: 1A Y93H IC50, HCV replicon 1A Y93H

COC(=O)NC(C(=O)N1CCC[C@H]1c1ncc(-c2ccc3c(c2)cc2n3C(c3ccc(C4CC4)s3)Oc3cc(-c4cnc([C@@H]5CCCN5C(=O)[C@@H](NC(=O)OC)C(C)C)[nH]4)cc(F)c3-2)[nH]1)C1CCOC(C)(C)C1 (single isomer, unassigned) [Compound 221]
IC50 (HCV replicon 1AY93H; [1]): 180 pM | IC50 (HCV replicon 1A; replicon 1A): 2.2 pM | IC50 (HCV replicon 2B; read-out: 2B IC50, replicon 2B): 210 pM

COC(=O)NC(C(=O)N1[C@@H]2C[C@@H]2C[C@H]1c1ncc(-c2ccc3c(c2)c(F)c2n3C(c3ccc(C4CC4)s3)Oc3cc(-c4cnc([C@@H]5CCCN5C(=O)[C@@H](NC(=O)OC)C(C)C)[nH]4)cc(F)c3-2)[nH]1)C1CCOC(C)(C)C1 (single isomer, unassigned) [Compound 422]
IC50 (HCV replicon 1AY93H; [2]): 108 pM | IC50 (HCV replicon 1A; [3]): 2.3 pM | IC50 (HCV replicon 2B; [4]): 138 pM

CCOC(C)[C@H](NC(=O)OC)C(=O)N1CCC[C@H]1c1ncc(-c2cc(F)c3c(c2)OC(c2cc(C)c(C)s2)n2c-3cc3cc(-c4cnc([C@@H]5CCCN5C(=O)[C@@H](NC(=O)OC)C(C)C)[nH]4)ccc32)[nH]1 (single isomer, unassigned) [Compound 80]
IC50 (HCV replicon 1AY93H; [1]): 4870 pM | IC50 (HCV replicon 1A; replicon 1A): 2.7 pM | IC50 (HCV replicon 2B; read-out: 2B IC50, replicon 2B): 3160 pM

COC(=O)N[C@H](C(=O)N1CCC[C@H]1c1ncc(-c2cc(F)c3c(c2)OC(c2cc(C)c(C)s2)n2c-3cc3cc(-c4cnc([C@@H]5C[C@H]6C[C@H]6N5C(=O)[C@@H](NC(=O)OC)C(C)C)[nH]4)ccc32)[nH]1)C(C)C (single isomer, unassigned) [Compound 508]
IC50 (HCV replicon 1AY93H; [2]): 608 pM | IC50 (HCV replicon 1A; [3]): 40.9 pM | IC50 (HCV replicon 2B; [4]): 7090 pM

COC(=O)NC(C(=O)N1CCC[C@H]1c1ncc(-c2ccc3c(c2)cc2n3C(c3ccc(C(C)C)s3)Oc3cc(-c4cnc([C@@H]5CCCN5C(=O)[C@@H](NC(=O)OC)C(C)C)[nH]4)cc(F)c3-2)[nH]1)C1C[C@@H](C)O[C@@H](C)C1 (single isomer, unassigned) [Compound 235]
IC50 (HCV replicon 1AY93H; [1]): 3870 pM | IC50 (HCV replicon 1A; replicon 1A): 1.3 pM | IC50 (HCV replicon 2B; read-out: 2B IC50, replicon 2B): 10200 pM

COC(=O)N[C@H](C(=O)N1CCC[C@H]1c1ncc(-c2cc(C)c3c(c2)OC(c2cc(C)c(C)s2)n2c-3cc3cc(-c4cnc([C@@H]5CCCN5C(=O)[C@@H](NC(=O)OC)C(C)C)[nH]4)ccc32)[nH]1)C(C)C (single isomer, unassigned) [Compound 16]
IC50 (HCV replicon 1AY93H; [1]): 490 pM | IC50 (HCV replicon 1A; replicon 1A): 2.4 pM | IC50 (HCV replicon 2B; read-out: 2B IC50, replicon 2B): 171 pM

COC(=O)N[C@H](C(=O)N1CCC[C@H]1c1ncc(-c2cc(F)c3c(c2)OC(c2ccc(OC)s2)n2c-3cc3cc(-c4cnc([C@@H]5CCCN5C(=O)[C@@H](NC(=O)OC)C(C)C)[nH]4)ccc32)[nH]1)C(C)C (single isomer, unassigned) [Compound 19]
IC50 (HCV replicon 1AY93H; [1]): 500 pM | IC50 (HCV replicon 1A; Hepatitis C virus, replicon 1A): 1.6 pM | IC50 (HCV replicon 2B; read-out: 2B IC50, replicon 2B): 1880 pM

COC(=O)N[C@H](C(=O)N1CCC[C@H]1c1ncc(-c2ccc3c(c2)OC(c2cc4ccccc4s2)n2c-3cc3cc(-c4cnc([C@@H]5C[C@@H](F)CN5C(=O)[C@@H](NC(=O)OC)C5CCOCC5)[nH]4)ccc32)[nH]1)C(C)C (single isomer, unassigned) [Compound 628]
IC50 (HCV replicon 1AY93H; [2]): 357 pM | IC50 (HCV replicon 1A; HCV replicon 1A): 3.14 pM | IC50 (HCV replicon 2B; [4]): 922 pM

COC(=O)NC(C(=O)N1CCC[C@H]1c1ncc(-c2ccc3c(c2)cc2n3C(c3ccc(C4CC4)s3)Oc3cc(-c4cnc([C@@H]5CCCN5C(=O)[C@@H](NC(=O)OC)C(C)C)[nH]4)cc(F)c3-2)[nH]1)C1C[C@@H](C)O[C@H](C)C1 (single isomer, unassigned) [Compound 192]
IC50 (HCV replicon 1AY93H; [1]): 28 pM | IC50 (HCV replicon 1A; replicon 1A): 1.1 pM | IC50 (HCV replicon 2B; read-out: 2B IC50, replicon 2B): 47 pM

CCc1ccc(C2Oc3cc(-c4cnc([C@@H]5CCCN5C(=O)C(NC(=O)OC)C5C[C@@H](C)O[C@@H](C)C5)[nH]4)cc(F)c3-c3cc4cc(-c5cnc([C@@H]6CCCN6C(=O)C(NC(=O)OC)C6C[C@@H](C)O[C@@H](C)C6)[nH]5)ccc4n32)s1 (single isomer, unassigned) [Compound 299]
IC50 (HCV replicon 1AY93H; [1]): 270 pM | IC50 (HCV replicon 1A; Hepatitis C virus, replicon 1A): 1.7 pM | IC50 (HCV replicon 2B; read-out: 2B IC50, replicon 2B): 140 pM

COC(=O)NC(C(=O)N1CCC[C@H]1c1ncc(-c2ccc3c(c2)cc2n3C(c3ccc(C4CC4)s3)Oc3cc(-c4cnc([C@@H]5CCCN5C(=O)[C@@H](NC(=O)OC)C(C)C)[nH]4)cc(F)c3-2)[nH]1)C1C[C@@H](C)O[C@H](C)C1 (single isomer, unassigned) [Compound 191]
IC50 (HCV replicon 1AY93H; [1]): 320 pM | IC50 (HCV replicon 1A; replicon 1A): 1.4 pM | IC50 (HCV replicon 2B; read-out: 2B IC50, replicon 2B): 890 pM

COC(=O)N[C@H](C(=O)N1CCC[C@H]1c1ncc(-c2ccc3c(c2)OC(c2ccc(C4CC4)s2)n2c-3cc3cc(-c4cnc([C@@H]5CCCN5C(=O)[C@@H](NC(=O)OC)C(C)C)[nH]4)ccc32)[nH]1)C(C)C (single isomer, unassigned) [Compound 703]
IC50 (HCV replicon 1AY93H; [5]): 260 pM | IC50 (HCV replicon 1A; HCV replicon 1A): 30 pM | IC50 (HCV replicon 2B; [4]): 120 pM

COC(=O)NC(C(=O)N1[C@@H]2C[C@@H]2C[C@H]1c1ncc(-c2ccc3c(c2)c(F)c2n3C(c3ccc(C4CC4)s3)Oc3cc(-c4cnc([C@@H]5CCCN5C(=O)[C@@H](NC(=O)OC)C(C)C)[nH]4)ccc3-2)[nH]1)C1C[C@@H](C)O[C@@H](C)C1 (single isomer, unassigned) [Compound 643]
IC50 (HCV replicon 1AY93H; [2]): 179 pM | IC50 (HCV replicon 1A; HCV replicon 1A): 1.2 pM | IC50 (HCV replicon 2B; [4]): 323 pM

COC(=O)N[C@H](C(=O)N1CCC[C@H]1c1ncc(-c2cc(F)c3c(c2)OC(c2cc4c(s2)CCC(C)(C)O4)n2c-3cc3cc(-c4cnc([C@@H]5CCCN5C(=O)[C@@H](NC(=O)OC)C(C)C)[nH]4)ccc32)[nH]1)C(C)C (single isomer, unassigned) [Compound 398]
IC50 (HCV replicon 1AY93H; [1]): 955 pM | IC50 (HCV replicon 1A; replicon 1A): 1.5 pM | IC50 (HCV replicon 2B; read-out: 2B IC50, replicon 2B): 494 pM

COC(=O)NC(C(=O)N1CCC[C@H]1c1ncc(-c2ccc3c(c2)cc2n3C(c3ccc(C4CC4)s3)Oc3cc(-c4cnc([C@@H]5CCCN5C(=O)[C@@H](NC(=O)OC)C(C)C)[nH]4)cc(F)c3-2)[nH]1)C1CCOC(C)(C)C1 (single isomer, unassigned) [Compound 223]
IC50 (HCV replicon 1AY93H; [1]): 240 pM | IC50 (HCV replicon 1A; replicon 1A): 2.5 pM | IC50 (HCV replicon 2B; read-out: 2B IC50, replicon 2B): 270 pM

COC(=O)N[C@H](C(=O)N1CCC[C@H]1c1ncc(-c2cc(F)c3c(c2)OC(c2ccc(CCF)s2)n2c-3cc3cc(-c4cnc([C@@H]5CCCN5C(=O)[C@@H](NC(=O)OC)C(C)C)[nH]4)ccc32)[nH]1)C(C)C (single isomer, unassigned) [Compound 43]
IC50 (HCV replicon 1AY93H; [1]): 120 pM | IC50 (HCV replicon 1A; Hepatitis C virus, replicon 1A): 1.9 pM | IC50 (HCV replicon 2B; read-out: 2B IC50, replicon 2B): 540 pM

COC(=O)N[C@H](C(=O)N1CCC[C@H]1c1ncc(-c2ccc3c(c2)OC(c2cc4ccccc4s2)n2c-3cc3cc(-c4cnc([C@@H]5C[C@H]6C[C@H]6N5C(=O)[C@@H](NC(=O)OC)C(C)C)[nH]4)ccc32)[nH]1)C(C)C (single isomer, unassigned) [Compound 609]
IC50 (HCV replicon 1AY93H; [2]): 18000 pM | IC50 (HCV replicon 1A; HCV replicon 1A): 7.4 pM | IC50 (HCV replicon 2B; [4]): 995 pM

COC(=O)NC(C(=O)N1CCC[C@H]1c1ncc(-c2ccc3c(c2)cc2n3C(c3ccc(C4CC4)s3)Oc3cc(-c4cnc([C@@H]5CCCN5C(=O)[C@@H](NC(=O)OC)C(C)C)[nH]4)cc(F)c3-2)[nH]1)C1CCO[C@@H](C)C1 (single isomer, unassigned) [Compound 355]
IC50 (HCV replicon 1AY93H; [1]): 1750 pM | IC50 (HCV replicon 1A; replicon 1A): 1.9 pM | IC50 (HCV replicon 2B; read-out: 2B IC50, replicon 2B): 2800 pM

COC(=O)N[C@H](C(=O)N1CCC[C@H]1c1ncc(-c2ccc3c(c2)O[C@@H](c2cc4cc(OC)ccc4s2)n2c-3cc3cc(-c4cnc([C@@H]5CCCN5C(=O)[C@@H](NC(=O)OC)C(C)C)[nH]4)ccc32)[nH]1)C(C)C [Compound 758]
IC50 (HCV replicon 1AY93H; [5]): 170 pM | IC50 (HCV replicon 1A; [3]): 5 pM | IC50 (HCV replicon 2B; Hepatitis C virus, read-out: 2B IC50, HCV replicon 2B): 430 pM
